Laboratory results published in ChEMBL document CHEMBL1201861, “Genomics of Drug Sensitity in Cancer screening data, Wellcome Trust Sanger Institute”.

Columns and labels:
Test in all cases: cells
HCC2218 = format: functional, cell-based; conditions: Homo sapiens;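 further: cell viability assay read-out, with IC50 given as the concentration that inhibits growth of the cell line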
Description: SANGER: Inhibition of human HCC2218 cell growth in a cell viability assay.

IA-LM = format: functional, cell-based, Homo sapiens; conditions: Homo sapiens, IA-LM;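 further: cell viability assay measuring growth inhibition of human IA-LM cells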
Description: SANGER: Inhibition of human IA-LM cell growth in a cell viability assay.

ES6 = format: functional, cell-based, Homo sapiens; conditions: Homo sapiens, ES6;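 further: growth inhibition of human ES6 cells, read out with a cell viability assay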
Description: SANGER: Inhibition of human ES6 cell growth in a cell viability assay.

BHT-101 = format: functional, cell-based, Homo sapiens; conditions: Homo sapiens, BHT-101
Description: SANGER: Inhibition of human BHT-101 cell growth in a cell viability assay.

SBC-1 = format: functional, cell-based; conditions: Homo sapiens;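 further: cell viability assay measuring growth inhibition of the SBC-1 cell line, IC50 being the concentration that halves growth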
Description: SANGER: Inhibition of human SBC-1 cell growth in a cell viability assay.

NY = format: functional, cell-based, Homo sapiens; conditions: Homo sapiens, NY
Description: SANGER: Inhibition of human NY cell growth in a cell viability assay.

LAN-6 = format: functional, cell-based, Homo sapiens; conditions: Homo sapiens, LAN-6;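 further: growth inhibition of LAN-6 cells, determined with a cell viability assay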
Description: SANGER: Inhibition of human LAN-6 cell growth in a cell viability assay.

MDA-MB-453 = format: functional, cell-based, Homo sapiens; conditions: Homo sapiens, MDA-MB-453
Description: SANGER: Inhibition of human MDA-MB-453 cell growth in a cell viability assay.

RD = format: functional, cell-based, Homo sapiens; conditions: Homo sapiens, RD
Description: SANGER: Inhibition of human RD cell growth in a cell viability assay.

HCC1937 = format: functional, cell-based, Homo sapiens; conditions: Homo sapiens, HCC1937;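 further: growth inhibition measured with a cell viability read-out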
Description: SANGER: Inhibition of human HCC1937 cell growth in a cell viability assay.

LS-123 = format: functional, cell-based, Homo sapiens; conditions: Homo sapiens, LS-123
Description: SANGER: Inhibition of human LS-123 cell growth in a cell viability assay.

SNU-449 = format: functional, cell-based, Homo sapiens; conditions: Homo sapiens, SNU-449
Description: SANGER: Inhibition of human SNU-449 cell growth in a cell viability assay.

SW982 = format: functional, cell-based; conditions: Homo sapiens;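 further: growth inhibition of SW982 cells, read out with a cell viability assay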
Description: SANGER: Inhibition of human SW982 cell growth in a cell viability assay.

SN12C = format: functional, cell-based, Homo sapiens; conditions: Homo sapiens, SN12C;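 further: growth inhibition of human SN12C cells, measured by a cell viability assay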
Description: SANGER: Inhibition of human SN12C cell growth in a cell viability assay.

HCC1954 = format: functional, cell-based, Homo sapiens; conditions: Homo sapiens, HCC1954;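 further: growth inhibition of human HCC1954 cells, read out with a cell viability assay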
Description: SANGER: Inhibition of human HCC1954 cell growth in a cell viability assay.

MFH-ino = format: functional, cell-based; conditions: Homo sapiens;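 further: growth inhibition of human MFH-ino cells, read out by a cell viability assay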
Description: SANGER: Inhibition of human MFH-ino cell growth in a cell viability assay.

KS-1 = format: functional, cell-based, Homo sapiens; conditions: Homo sapiens, KS-1;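 further: growth inhibition of KS-1 cells, read out with a cell viability assay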
Description: SANGER: Inhibition of human KS-1 cell growth in a cell viability assay.

ALL-PO = format: functional, cell-based; conditions: Homo sapiens;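 further: growth inhibition of ALL-PO cells, read out by a cell viability assay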
Description: SANGER: Inhibition of human ALL-PO cell growth in a cell viability assay.

DK-MG = format: functional, cell-based, Homo sapiens; conditions: Homo sapiens, DK-MG;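 further: growth inhibition of DK-MG cells, read out with a cell viability assay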
Description: SANGER: Inhibition of human DK-MG cell growth in a cell viability assay.

EW-11 = format: functional, cell-based, Homo sapiens; conditions: Homo sapiens, EW-11;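 further: growth inhibition of human EW-11 cells, measured with a cell viability assay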
Description: SANGER: Inhibition of human EW-11 cell growth in a cell viability assay.

CAMA-1 = format: functional, cell-based, Homo sapiens; conditions: Homo sapiens, CAMA-1;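 further: growth inhibition of CAMA-1 cells, read out with a cell viability assay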
Description: SANGER: Inhibition of human CAMA-1 cell growth in a cell viability assay.

Huh-7 = format: functional, cell-based, Homo sapiens; conditions: Homo sapiens, Huh-7;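 further: HuH-7 cell growth inhibition, read out with a cell viability assay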
Description: SANGER: Inhibition of human HuH-7 cell growth in a cell viability assay.

OVCAR-5 = format: functional, cell-based, Homo sapiens; conditions: Homo sapiens, OVCAR-5;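 further: growth inhibition of human OVCAR-5 cells, read out with a cell viability assay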
Description: SANGER: Inhibition of human OVCAR-5 cell growth in a cell viability assay.

IST-SL1 = format: functional, cell-based, Homo sapiens; conditions: Homo sapiens, IST-SL1;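 further: growth inhibition of human IST-SL1 cells, read out with a cell viability assay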
Description: SANGER: Inhibition of human IST-SL1 cell growth in a cell viability assay.

A4-Fuk = format: functional, cell-based; conditions: Homo sapiens;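 further: growth inhibition of A4-Fuk cells, read out by a cell viability assay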
Description: SANGER: Inhibition of human A4-Fuk cell growth in a cell viability assay.

KLE = format: functional, cell-based, Homo sapiens; conditions: Homo sapiens, KLE;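 further: growth inhibition of human KLE cells, read out with a cell viability assay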
Description: SANGER: Inhibition of human KLE cell growth in a cell viability assay.

RPMI-2650 = format: functional, cell-based, Homo sapiens; conditions: Homo sapiens, RPMI-2650
Description: SANGER: Inhibition of human RPMI-2650 cell growth in a cell viability assay.

SK-LMS-1 = format: functional, cell-based, Homo sapiens; conditions: Homo sapiens, SK-LMS-1;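 further: growth inhibition of human SK-LMS-1 cells, read out with a cell viability assay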
Description: SANGER: Inhibition of human SK-LMS-1 cell growth in a cell viability assay.

SF-268 = format: functional, cell-based, Homo sapiens; conditions: Homo sapiens, SF-268;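 further: growth inhibition of SF-268 cells determined with a cell viability assay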
Description: SANGER: Inhibition of human SF268 cell growth in a cell viability assay.

D283 Med = format: functional, cell-based, Homo sapiens; conditions: Homo sapiens, D283 Med
Description: SANGER: Inhibition of human D-283MED cell growth in a cell viability assay.

639-V = format: functional, cell-based, Homo sapiens; conditions: Homo sapiens, 639-V;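 further: growth inhibition of 639-V cells, read out with a cell viability assay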
Description: SANGER: Inhibition of human 639-V cell growth in a cell viability assay.

COLO-800 = format: functional, cell-based, Homo sapiens; conditions: Homo sapiens, COLO-800;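 further: growth inhibition of COLO-800 cells, read out with a cell viability assay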
Description: SANGER: Inhibition of human COLO-800 cell growth in a cell viability assay.

CAL-51 = format: functional, cell-based, Homo sapiens; conditions: Homo sapiens, CAL-51;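 further: human CAL-51 cell line, growth inhibition read out via a cell viability assay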
Description: SANGER: Inhibition of human CAL-51 cell growth in a cell viability assay.

WM-115 = format: functional, cell-based, Homo sapiens; conditions: Homo sapiens, WM-115
Description: SANGER: Inhibition of human WM-115 cell growth in a cell viability assay.

MC-IXC = format: functional, cell-based, Homo sapiens; conditions: Homo sapiens, MC-IXC;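 further: growth inhibition of MC-IXC cells, read out with a cell viability assay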
Description: SANGER: Inhibition of human MC-IXC cell growth in a cell viability assay.

SAOS-2 = format: functional, cell-based, Homo sapiens; conditions: Homo sapiens, SAOS-2;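 further: growth inhibition of human Saos-2 cells determined by a cell viability assay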
Description: SANGER: Inhibition of human Saos-2 cell growth in a cell viability assay.

5637 = format: functional, cell-based, Homo sapiens; conditions: Homo sapiens
Description: SANGER: Inhibition of human 5637 cell growth in a cell viability assay.

NCI-H2122 = format: functional, cell-based, Homo sapiens; conditions: Homo sapiens, NCI-H2122;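 further: growth inhibition of the cells, read out with a cell viability assay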
Description: SANGER: Inhibition of human NCI-H2122 cell growth in a cell viability assay.

EW-3 = format: functional, cell-based; conditions: Homo sapiens;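 further: cell viability assay read-out, IC50 reflects inhibition of growth of the EW-3 cells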
Description: SANGER: Inhibition of human EW-3 cell growth in a cell viability assay.

MKN-1 = format: functional, cell-based, Homo sapiens; conditions: Homo sapiens, MKN-1;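 further: growth inhibition of human MKN1 cells, read out by a cell viability measurement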
Description: SANGER: Inhibition of human MKN1 cell growth in a cell viability assay.

KE-37 = format: functional, cell-based; conditions: Homo sapiens;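 further: growth inhibition of KE-37 cells, read out with a cell viability assay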
Description: SANGER: Inhibition of human KE-37 cell growth in a cell viability assay.

GAK = format: functional, cell-based, Homo sapiens; conditions: Homo sapiens, GAK;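 further: cell growth inhibition read out by a cell viability assay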
Description: SANGER: Inhibition of human GAK cell growth in a cell viability assay.

A388 = format: functional, cell-based, Homo sapiens; conditions: Homo sapiens, A388;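 further: growth inhibition of human A388 cells, read out with a cell viability assay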
Description: SANGER: Inhibition of human A388 cell growth in a cell viability assay.

C3A = format: functional, cell-based, Homo sapiens; conditions: Homo sapiens, C3A;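 further: growth inhibition of C3A human cells, quantified with a cell viability readout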
Description: SANGER: Inhibition of human C3A cell growth in a cell viability assay.

AN3-CA = format: functional, cell-based; conditions: Homo sapiens;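 further: growth inhibition of human AN3-CA cells measured by a cell viability assay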
Description: SANGER: Inhibition of human AN3-CA cell growth in a cell viability assay.

NCI-H2347 = format: functional, cell-based, Homo sapiens; conditions: Homo sapiens, NCI-H2347;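 further: growth inhibition of the cell line, read out with a cell viability assay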
Description: SANGER: Inhibition of human NCI-H2347 cell growth in a cell viability assay.

CAL-120 = format: functional, cell-based, Homo sapiens; conditions: Homo sapiens, CAL-120;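 further: cell growth inhibition, read out as cell viability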
Description: SANGER: Inhibition of human CAL-120 cell growth in a cell viability assay.

MEG-01 = format: functional, cell-based; conditions: Homo sapiens;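 further: growth inhibition of MEG-01 cells, read out by a cell viability assay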
Description: SANGER: Inhibition of human MEG-01 cell growth in a cell viability assay.

NCI-H1437 = format: functional, cell-based, Homo sapiens; conditions: Homo sapiens, NCI-H1437;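 further: growth inhibition of human NCI-H1437 cells, read out by a cell viability assay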
Description: SANGER: Inhibition of human NCI-H1437 cell growth in a cell viability assay.

NCI-H1581 = format: functional, cell-based, Homo sapiens; conditions: Homo sapiens, NCI-H1581;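 further: cell growth inhibition read out by a viability assay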
Description: SANGER: Inhibition of human NCI-H1581 cell growth in a cell viability assay.

SK-PN-DW = format: functional, cell-based; conditions: Homo sapiens;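 further: growth inhibition measured with a viability assay on these cells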
Description: SANGER: Inhibition of human SK-PN-DW cell growth in a cell viability assay.

VA-ES-BJ = format: functional, cell-based, Homo sapiens; conditions: Homo sapiens, VA-ES-BJ;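 further: growth inhibition of the VA-ES-BJ cell line, read out by a cell viability assay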
Description: SANGER: Inhibition of human VA-ES-BJ cell growth in a cell viability assay.

Measured: IC50

CCOc1nc(NC(=O)Cc2cc(OC)ccc2OC)cc(N)c1C#N
> 10 µM: all assays above
